Assay [1] has as its target T1, p110δ/p85α (PI3K p110 delta) (Homo sapiens, UniProt O00329).
T1 construct: purchased Upstate Group, Millipore; Dundee, UK
Nature of the assay: PI3K isoform inhibition assay (fluorescence polarization PIP3 displacement; alternatively radiometric), p110 delta. The format is biochemical. To be noted: for IC50: PI3K p110 delta binding IC50; for IC50 p110 alpha/IC50 p110 delta: delta/alpha selectivity: ratio of p110 alpha IC50 to p110 delta IC50. The protocol: PI3K Isoform Inhibition Assay (p110 Alpha, Beta, Gamma, Delta: α, β, γ, δ)
PI3K enzymatic activity was assayed by measuring the amount of product phosphatidylinositol 3,4,5-phosphate (PIP3) formed from substrate 4,5 phosphatidylinositol 4,5-phosphate (PIP2) using a fluorescence polarization displacement assay. The decrease in fluorescence polarization of a fluorescent PIP3 probe is measured as it is displaced from a PIP3-binding protein GRP-1 detector by PI3K-catalyzed product. […] The kinase reactions were initiated by the addition of 40 ng/mL p110α/p85α, 300 ng/mL p110β/p85α, 40 ng/mL p110γ, or 40 ng/mL p110δ/p85α (Upstate Group, Millipore; Dundee, UK), and 10 μM PIP2 (Echelon Biosciences) to the wells. […] After 60 minutes of incubation at room temperature to allow equilibration of labeled and unlabeled PIP3 binding, the parallel and perpendicular components of the fluorescence emissions from each sample were measured at an excitation wavelength of 530 nm and an emission wavelength of 590 nm using an Envision fluorescent plate reader with a rhodamine filter (PerkinElmer Life and Analytical Sciences; Wellesley, Mass.). The assay is capable of detecting 0.1-2.0 μM PIP3 product. The IC50 values were obtained by fitting the dose-dependent inhibition data to a 4-parameter equation using Assay Explorer software (MDL, San Ramon, Calif.).
The Formula I compound was serially diluted in 100% DMSO. The kinase reaction was incubated for 1 h at room temperature, and the reaction was terminated by the addition of PBS. IC50 values were subsequently determined using sigmoidal dose-response curve fit (variable slope).
HT baculovirus expression system (GIBCO/BRL), and then purified for use in biochemical assays. The four Class I PI 3-kinases are cloned into baculovirus vectors as follows: […]

Assay [2] relates to CD69 positive cells that are also CD20 positive, stimulated by anti-IgM, in human whole blood. Description: CD69 whole blood assay (human whole blood, anti-IgM stimulated). The format is cell-based. To be noted: read-out: IC50 in the CD69 Whole Blood Assay. On the procedure:
Human blood is obtained from healthy volunteers, with the following restrictions: 1 week drug-free, non-smokers. Blood (approximately 20 mls to test 8 compounds) is collected by venipuncture into Vacutainer tubes with sodium heparin.
Solutions of Formula I compounds at 1000 or 2000 μM in PBS (20×), are diluted by three-fold serial dilutions in 10% DMSO in PBS for a nine point dose-response curve. An aliquot of 5.5 μl of each compound is added in duplicate to a 2 ml 96-well plate; 5.5 μl of 10% DMSO in PBS is added as control and no-stimulus wells. Human whole blood—HWB (100 μl) is added to each well. After mixing the plates are incubated at 37° C., 5% CO2, 100% humidity for 30 minutes. Goat F(ab′)2 anti-human IgM (10 μl of a […] solution, 50 μg/ml final) is added to each well (except the no-stimulus wells) with mixing and the plates are incubated for an additional 20 hours. At the end of the 20 hour incubation, samples are incubated with florescent labeled antibodies for 30 minutes, at 37° C., 5% CO2, 100% humidity. Include induced control, unstained and single stains for compensation adjustments and initial voltage settings. Samples are then lysed with Pharmingen Lyse according to the manufacturer's instructions. Samples are then transferred to a 96 well plate suitable to be run on the AMS 96 well system on the BD Calibur FACs machine. Data acquired and Mean Fluorescence Intensity values were obtained using Cell Quest Software. Results are initially analyzed by FACS analysis software (Flow Jo). […] The IC50 values are calculated by Activityl)ase using Xlfit version 3, equation 201.

Where [3] appears, read: concentration decreasing by 50% the percent CD69 positive of CD20 positive cells stimulated by anti-IgM, 20 hours.

Read-outs that look alike come from different tables or passages of the source.

The term IC50 denotes the concentration that inhibits the measured activity by half.

T1 sequence (O00329 whole entry): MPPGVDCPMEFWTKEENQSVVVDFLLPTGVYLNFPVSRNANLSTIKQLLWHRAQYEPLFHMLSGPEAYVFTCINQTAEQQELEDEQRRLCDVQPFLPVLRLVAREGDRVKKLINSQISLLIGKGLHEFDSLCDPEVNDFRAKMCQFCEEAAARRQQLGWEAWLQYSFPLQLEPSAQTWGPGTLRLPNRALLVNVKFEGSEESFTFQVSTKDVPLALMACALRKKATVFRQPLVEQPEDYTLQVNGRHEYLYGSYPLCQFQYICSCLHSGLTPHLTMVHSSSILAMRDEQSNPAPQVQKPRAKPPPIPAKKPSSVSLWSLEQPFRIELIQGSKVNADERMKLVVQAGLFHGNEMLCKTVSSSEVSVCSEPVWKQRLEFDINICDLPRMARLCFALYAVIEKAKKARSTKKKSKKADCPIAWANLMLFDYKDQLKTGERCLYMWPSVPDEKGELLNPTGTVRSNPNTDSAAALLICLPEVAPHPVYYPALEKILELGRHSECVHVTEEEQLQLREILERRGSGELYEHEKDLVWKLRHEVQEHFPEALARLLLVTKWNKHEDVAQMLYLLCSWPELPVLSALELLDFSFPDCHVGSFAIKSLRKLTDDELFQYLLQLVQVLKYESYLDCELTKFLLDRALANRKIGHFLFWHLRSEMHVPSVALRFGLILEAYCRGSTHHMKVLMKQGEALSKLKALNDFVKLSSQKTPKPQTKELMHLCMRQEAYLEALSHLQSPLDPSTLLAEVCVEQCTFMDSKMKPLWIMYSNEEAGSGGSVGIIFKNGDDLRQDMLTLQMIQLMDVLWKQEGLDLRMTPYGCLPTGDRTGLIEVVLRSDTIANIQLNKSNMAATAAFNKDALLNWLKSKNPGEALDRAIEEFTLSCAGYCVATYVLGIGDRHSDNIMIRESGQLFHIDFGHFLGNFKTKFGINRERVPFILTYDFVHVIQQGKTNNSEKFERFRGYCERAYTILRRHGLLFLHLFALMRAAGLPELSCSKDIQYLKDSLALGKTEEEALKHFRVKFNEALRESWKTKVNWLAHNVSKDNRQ
T1 sequence (P27986 whole entry partner): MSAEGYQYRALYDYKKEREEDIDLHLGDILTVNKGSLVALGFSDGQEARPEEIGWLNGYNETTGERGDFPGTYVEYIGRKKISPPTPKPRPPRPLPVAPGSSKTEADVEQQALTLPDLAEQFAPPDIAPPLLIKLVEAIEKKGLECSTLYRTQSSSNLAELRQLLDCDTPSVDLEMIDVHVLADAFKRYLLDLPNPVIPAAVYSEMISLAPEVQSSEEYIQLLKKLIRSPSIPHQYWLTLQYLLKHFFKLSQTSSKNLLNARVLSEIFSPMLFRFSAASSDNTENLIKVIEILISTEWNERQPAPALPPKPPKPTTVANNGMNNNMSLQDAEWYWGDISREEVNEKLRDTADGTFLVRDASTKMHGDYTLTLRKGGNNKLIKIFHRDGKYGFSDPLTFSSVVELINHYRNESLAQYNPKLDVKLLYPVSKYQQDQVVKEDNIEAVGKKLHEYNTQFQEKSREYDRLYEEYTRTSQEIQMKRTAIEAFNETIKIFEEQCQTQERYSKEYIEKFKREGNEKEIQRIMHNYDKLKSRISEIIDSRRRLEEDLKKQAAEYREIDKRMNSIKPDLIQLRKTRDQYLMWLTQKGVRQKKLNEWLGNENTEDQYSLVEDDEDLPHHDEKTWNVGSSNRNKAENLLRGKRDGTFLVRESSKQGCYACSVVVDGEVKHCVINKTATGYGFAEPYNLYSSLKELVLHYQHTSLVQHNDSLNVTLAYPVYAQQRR

As for `Cc1nc2ccccc2n1-c1nc(N2CCOCC2)c2oc(CN3CCN(C(C)(C)C(N)=O)CC3)cc2n1` [Example 240, 2-methyl-2-(4-((2-(2-methyl-1H-benzo[d]imidazol-1-yl)-4-morpholinofuro[3,2-d]pyrimidin-6-yl)methyl)piperazin-1-yl)propanamide], the values for the IC50 in assay [1] and in assay [2] (setting [3]) were 2.74 nM and 17.8 nM, respectively. Moreover, the “IC50 p110 alpha/IC50 p110 delta” value in assay [1] worked out at 64. In the case of `Cn1c(CN2CCN(C(C)(C)C)CC2)nc2c(N3CCOCC3)nc(-n3c(C4CC4)nc4ccccc43)nc21` [Example 403, 4-(8-((4-tert-butylpiperazin-1-yl)methyl)-2-(2-cyclopropyl-1H-benzo[d]imidazol-1-yl)-9-methyl-9H-purin-6-yl)morpholine], in assay [2] (setting [3]), the IC50 is 22 nM.

With `Cc1nc2ccccc2n1-c1nc(N2CCOCC2)c2nc(CN3CCN(C(C)(C)C(N)=O)CC3)n(C)c2n1` [Example 406, 2-methyl-2-(4-((9-methyl-2-(2-methyl-1H-benzo[d]imidazol-1-yl)-6-morpholino-9H-purin-8-yl)methyl)piperazin-1-yl)propanamide], the IC50 in assay [2] (setting [3]) was 20.6 nM. The same measure, in the same setting: as for `Cn1c(CN2CCN(C(C)(C)CO)CC2)nc2c(N3CCOCC3)nc(-n3c(CCO)nc4ccccc43)nc21` [Example 427, 2-(4-((2-(2-(2-hydroxyethyl)-1H-benzo[d]imidazol-1-yl)-9-methyl-6-morpholino-9H-purin-8-yl)methyl)piperazin-1-yl)-2-methylpropan-1-ol], the figure is 56.7 nM. Take `CNc1nc2ccccc2n1-c1nc(N2CCOCC2)c2nc(CN3CCN(C(C)(C)C)CC3)n(C)c2n1` [Example 428, 1-(8-((4-tert-butylpiperazin-1-yl)methyl)-9-methyl-6-morpholino-9H-purin-2-yl)-N-methyl-1H-benzo[d]imidazol-2-amine]: the IC50 in assay [2] (setting [3]) stood at 34.2 nM. Same read-out and setting: the figure for `Cn1c(CN2CCN(C(C)(C)C(N)=O)CC2)nc2c(N3CCOCC3)nc(-n3c(C4CC4)nc4ccccc43)nc21` [Example 438, 2-(4-((2-(2-cyclopropyl-1H-benzo[d]imidazol-1-yl)-9-methyl-6-morpholino-9H-purin-8-yl)methyl)piperazin-1-yl)-2-methylpropanamide] is 65.9 nM.

With `CC(C)c1nc2ccccc2n1-c1nc(N2CCOCC2)c2nc(CN3CCN(C(C)(C)CO)CC3)[nH]c2n1` [Example 490, 2-(4-((2-(2-isopropyl-1H-benzo[d]imidazol-1-yl)-6-morpholino-9H-purin-8-yl)methyl)piperazin-1-yl)-2-methylpropan-1-ol], in assay [1], the concentration for half-maximal inhibition (IC50) turned out to be 2.38 nM and the “IC50 p110 alpha/IC50 p110 delta” value came to 111. Besides, the IC50 in assay [2] (setting [3]) amounted to 38.3 nM. On to `CN(C)C1CCN(Cc2cc3nc(-c4ccc(O)c5nccn45)nc(N4CCOCC4)c3s2)CC1` [Example 689, 5-(6-((4-(dimethylamino)piperidin-1-yl)methyl)-4-morpholinothieno[3,2-d]pyrimidin-2-yl)imidazo[1,2-a]pyridin-8-ol], for which, in assay [1], the IC50 was determined as 25.8 nM and the “IC50 p110 alpha/IC50 p110 delta” value is given as 23. For the same compound, the IC50 in assay [2] (20 h) is 29 nM. Regarding `Cc1nc2ccccc2n1-c1nc(N2CCOCC2)c2nc(CN3CCC(C(C)(C)O)CC3)[nH]c2n1` [Example 702, 2-(1-((2-(2-methyl-1H-benzo[d]imidazol-1-yl)-6-morpholino-9H-purin-8-yl)methyl)piperidin-4-yl)propan-2-ol], the IC50 in assay [2] (setting [3]) came to 28.6 nM.

For the origin of these results see patent US8394796B2, “Bicyclic pyrimidine PI3K inhibitor compounds selective for P110 delta, and methods of use” (Genentech, Inc., priority 2009, dated 2013).
